From patent US9476053B2, “Methods and compositions for inhibition of immune responses and autoimmunity” (Dynavax Technologies Corporation, priority 2007, dated 2016)

Columns and labels:
TLR9 [1] = target: T1, TLR9 (Mus musculus, UniProt Q9EQU3); assay: Mouse splenocytes stimulated with 1018 ISS (TLR9 ligand), IL-6 by immunoassay; format: cell-based; conditions: TLR9 stimulation (1018 ISS)
T1 construct: The dispersed splenocytes were pelleted by centrifugation, then resuspended in fresh medium; endogenous in cells; host or cells: primary splenocytes of BALB/c mice
T1 sequence (Q9EQU3 26-1032): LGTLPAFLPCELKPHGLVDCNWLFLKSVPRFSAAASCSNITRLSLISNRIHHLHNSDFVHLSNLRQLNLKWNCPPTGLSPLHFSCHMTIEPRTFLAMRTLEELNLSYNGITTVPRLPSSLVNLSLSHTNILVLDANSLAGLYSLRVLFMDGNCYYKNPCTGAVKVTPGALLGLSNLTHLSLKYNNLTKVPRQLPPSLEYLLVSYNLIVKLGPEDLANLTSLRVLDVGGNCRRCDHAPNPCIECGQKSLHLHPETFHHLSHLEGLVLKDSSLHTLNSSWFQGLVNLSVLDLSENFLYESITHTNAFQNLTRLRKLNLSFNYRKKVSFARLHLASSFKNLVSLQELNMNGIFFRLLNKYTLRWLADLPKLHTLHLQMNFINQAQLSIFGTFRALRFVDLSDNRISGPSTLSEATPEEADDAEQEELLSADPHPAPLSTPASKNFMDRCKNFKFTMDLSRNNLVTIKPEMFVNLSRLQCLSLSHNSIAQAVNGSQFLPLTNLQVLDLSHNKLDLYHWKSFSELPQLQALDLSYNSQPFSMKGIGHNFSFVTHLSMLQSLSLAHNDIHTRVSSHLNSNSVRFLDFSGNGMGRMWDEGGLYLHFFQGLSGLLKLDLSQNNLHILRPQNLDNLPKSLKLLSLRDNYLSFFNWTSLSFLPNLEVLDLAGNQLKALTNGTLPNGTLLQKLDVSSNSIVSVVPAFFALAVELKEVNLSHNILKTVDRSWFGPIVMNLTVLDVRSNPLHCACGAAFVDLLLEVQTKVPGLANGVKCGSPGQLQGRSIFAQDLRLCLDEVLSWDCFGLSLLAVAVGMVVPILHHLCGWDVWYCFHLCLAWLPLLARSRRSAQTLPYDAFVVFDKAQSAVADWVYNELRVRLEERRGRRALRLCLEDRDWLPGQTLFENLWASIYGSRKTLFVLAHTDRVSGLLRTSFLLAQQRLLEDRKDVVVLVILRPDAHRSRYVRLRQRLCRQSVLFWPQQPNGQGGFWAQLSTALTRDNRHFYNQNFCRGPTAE
Experimental: (§1) Modified and unmodified immunoregulatory polynucleotides (IRPs) (i.e., polynucleotides containing at least one modified or unmodified IRS) or control samples were assayed for immunoregulatory (IR) activity of innate immune responses on human and mouse cells.
(§2) For mouse cell assays, spleens from 6-12 week-old BALB/c mice spleen were harvested and mechanically dispersed by forcing the digested fragments through metal screens. The dispersed splenocytes were pelleted by centrifugation, then resuspended in fresh medium (RPMI 1640 with 10% fetal calf serum, plus 50 units/mL penicillin, 50 μg/mL streptomycin, 2 mM glutamine, and 0.05 mM β-mercaptoethanol). In a dose-dependent manner, the cells were then stimulated with […] of 1018 ISS (TLR9 ligand; 5′-[…]-3′ (SEQ ID NO:122)) or 1 μM of R848 (TLR7 ligand; a small molecule, an imidazoquinoline also called resiquimod) either alone or in the presence of the tested IRPs. At 48 hours, supernatants were collected and cytokine levels, IL-6, were measured using immunoassays. […]

TLR7 = target: T2, TLR7 (Mus musculus, UniProt P58681); assay: Mouse splenocytes stimulated with R848 (TLR7 ligand), IL-6 by immunoassay; format: cell-based
T2 construct: The dispersed splenocytes were pelleted by centrifugation, then resuspended in fresh medium; endogenous in cells; host or cells: primary splenocytes of BALB/c mice
T2 sequence (P58681 27-1050): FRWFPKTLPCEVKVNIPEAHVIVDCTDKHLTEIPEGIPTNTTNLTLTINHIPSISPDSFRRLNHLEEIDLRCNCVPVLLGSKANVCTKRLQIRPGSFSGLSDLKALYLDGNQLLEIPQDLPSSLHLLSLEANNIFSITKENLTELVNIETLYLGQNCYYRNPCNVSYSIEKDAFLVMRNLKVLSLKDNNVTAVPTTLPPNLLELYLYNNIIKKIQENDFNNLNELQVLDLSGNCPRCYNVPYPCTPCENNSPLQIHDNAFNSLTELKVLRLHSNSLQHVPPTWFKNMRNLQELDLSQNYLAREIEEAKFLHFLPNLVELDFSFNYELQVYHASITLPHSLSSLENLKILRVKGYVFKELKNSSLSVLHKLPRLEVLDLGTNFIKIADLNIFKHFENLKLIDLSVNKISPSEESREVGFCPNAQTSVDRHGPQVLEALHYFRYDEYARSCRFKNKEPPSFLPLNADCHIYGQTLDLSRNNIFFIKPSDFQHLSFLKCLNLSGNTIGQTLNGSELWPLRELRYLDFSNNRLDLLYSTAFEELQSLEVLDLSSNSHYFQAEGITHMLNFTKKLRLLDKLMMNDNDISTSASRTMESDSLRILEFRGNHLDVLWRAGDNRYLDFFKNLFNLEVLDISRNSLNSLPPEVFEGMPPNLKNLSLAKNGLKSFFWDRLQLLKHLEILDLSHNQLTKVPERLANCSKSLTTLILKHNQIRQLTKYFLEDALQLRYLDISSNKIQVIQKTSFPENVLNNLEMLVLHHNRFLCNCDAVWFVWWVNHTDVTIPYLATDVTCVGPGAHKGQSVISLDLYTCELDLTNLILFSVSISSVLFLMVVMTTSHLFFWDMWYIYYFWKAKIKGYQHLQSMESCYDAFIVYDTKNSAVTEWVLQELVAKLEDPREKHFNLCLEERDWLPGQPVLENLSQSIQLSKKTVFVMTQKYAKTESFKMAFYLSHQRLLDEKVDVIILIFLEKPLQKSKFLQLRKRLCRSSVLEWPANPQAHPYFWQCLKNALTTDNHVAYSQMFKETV
Experimental: as §1, §2

PDC = assay: In vivo cell survival after escalating dose of Dexthametasone in 129 mice; parameters: species or system mouse; conditions: 0.5 mg-4 mg, 16 hours, spleen and blood
Experimental: To investigate whether PDC are sensitive to glucorticoid induced death in vivo, 129 mice were treated with escalating dose of Dexthametasone (0.5 mg-4 mg) and after 16 hours spleen and blood was harvest. Cell survival was measured by flow cytometry. The number of viable cells was evaluated by flow cytometry by comparing to a fixed amount of microbeads that was added in equal amount in all samples prior to the measure on the flow cytometry.
Specific markers were used to identify specific subsets. Cells were identified to be PDC by the surface presence of B220, CD11c, and PDCA1 marker. Myeloid dendritic cells were identified as to be CD11c positive and B220 negative. B-cells were identified as B220 positive cells and CD11c negative. Monocytes were identified as CD11b positive. Cell viability using cells from spleen tissue under increasing Dexthametason dose was evaluated and results are shown in FIG. 32. Similar results were obtained using blood (data not shown). PDC were sensitive to glucorticoid induced death in vivo.

TLR9 [2] = target: T3, TLR9 (Homo sapiens, UniProt Q9NR96); assay: Human PDC activated with CpG-C ISS C274, IFN-α production, IRS coupled to Ficoll 400; format: cell-based; parameters: innate immune responses on human plasmacytoid dendritic cells (PDCs); endogenous in cells; host or cells: human plasmacytoid dendritic cells (PDCs); conditions: compared with IRS not coupled
T3 sequence (Q9NR96 26-1032): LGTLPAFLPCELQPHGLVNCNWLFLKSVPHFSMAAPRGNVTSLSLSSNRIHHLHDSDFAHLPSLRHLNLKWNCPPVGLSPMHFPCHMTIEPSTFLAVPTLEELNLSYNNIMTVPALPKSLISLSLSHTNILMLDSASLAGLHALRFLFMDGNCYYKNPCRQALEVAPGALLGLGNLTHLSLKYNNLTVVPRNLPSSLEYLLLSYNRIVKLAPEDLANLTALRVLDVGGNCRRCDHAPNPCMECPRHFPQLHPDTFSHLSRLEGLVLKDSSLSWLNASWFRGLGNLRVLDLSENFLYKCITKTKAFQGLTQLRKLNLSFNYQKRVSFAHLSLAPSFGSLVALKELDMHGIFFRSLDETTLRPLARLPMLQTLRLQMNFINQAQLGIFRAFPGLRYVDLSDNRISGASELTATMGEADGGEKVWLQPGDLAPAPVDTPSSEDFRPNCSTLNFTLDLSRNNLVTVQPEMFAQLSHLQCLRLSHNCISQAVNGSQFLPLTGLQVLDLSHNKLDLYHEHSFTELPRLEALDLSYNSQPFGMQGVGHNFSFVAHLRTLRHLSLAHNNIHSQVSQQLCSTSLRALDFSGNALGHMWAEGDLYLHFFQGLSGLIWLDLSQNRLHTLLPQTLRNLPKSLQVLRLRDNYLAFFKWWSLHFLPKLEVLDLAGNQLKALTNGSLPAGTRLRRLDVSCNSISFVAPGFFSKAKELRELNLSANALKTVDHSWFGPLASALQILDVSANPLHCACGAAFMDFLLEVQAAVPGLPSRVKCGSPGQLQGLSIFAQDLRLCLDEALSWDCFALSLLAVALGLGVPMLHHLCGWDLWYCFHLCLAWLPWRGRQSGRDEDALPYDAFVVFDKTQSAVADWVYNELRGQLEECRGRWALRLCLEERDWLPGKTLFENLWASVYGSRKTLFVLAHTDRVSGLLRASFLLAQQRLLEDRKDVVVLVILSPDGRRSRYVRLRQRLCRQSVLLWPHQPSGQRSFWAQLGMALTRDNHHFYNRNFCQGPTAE
Description: To further investigate whether it is possible to increase IRS activity with respect to inhibition of IFN-α production by aggregating IRS molecule onto a higher order molecule, we have generated molecules that are composed by IRS oligonucleotides that are covalently associated to Ficoll 400, a neutral, highly branched, hydrophilic polymer of sucrose. The nature of this sugar allowed us to link between 10 to over 100 IRS oligos per Ficoll molecule.
The conjugation of oligonucleotides to ficoll as practiced currently consists of four reaction steps: (I) The commercially obtained ficoll is carboxymethylated by reaction of ficoll with chloroacetic acid in base. (II) After neutralization and dialysis, product is reacted with ethylene diamine in the presence of the 1-ethyl-3-[3-(dimethylaminopropyl]carbodiimide) EDC to give product (III). After dialysis Product (III) is reacted with (sulfosuccinimidal 4-[N-maleimidyl]-cyclohexane-1-carboxylate) SMCC to give the ficoll-maleimide product (IV). The thiol-reactive species (IV) is then reacted with the oligonucleotide thiol to give the final product (V), a multioligonucleotide conjugate of ficoll.
Thus, it is possible to increase IRS activity with respect to inhibition of IFN-α production by aggregating IRS molecule onto a higher order molecule.

For “5′-UGCUCCUGGAGGGG UUGU-3′ (DNA TGCTCCTGGAGGGGTTGT; all LNA, backbone and methylation of C not given here) [SEQ ID NO:161]”, the “IL-6 levels compared to unmodified SEQ ID NO:123” value (TLR9 [1]) was “failed to result in a significant decreased” and the “IL-6 levels compared to unmodified SEQ ID NO:123” value (TLR7) was “failed to result in a significant decreased”.
C[C@@H]1C[C@H]2[C@@H]3CCC4=CC(=O)C=C[C@]4(C)[C@@]3(F)[C@@H](O)C[C@]2(C)[C@@]1(O)C(=O)CO [Dexthametasone] was tested, and the “PDC sensitivity to glucorticoid induced death in vivo” value (PDC) was “sensitive”.
For “IRS-Ficoll 400: 5′-TGCTCCTGGAGGGGTTGT-3′ (SEQ ID NO:123) coupled to Ficoll 400 (coupled to Ficoll 400, backbone chemistry not given here)”, the “activity for blocking IFN-α production by PDC” value (TLR9 [2]) was “much increased activity”.
